# Data published in patent publication US20230250077A1, “SULFONYLBENZAMIDE DERIVATIVE AND CONJUGATE THEREOF, PREPARATION METHOD THEREFOR AND USE THEREOF” (Jiangsu Hengrui Pharmaceuticals Co., Ltd., priority 2020, published 2023).
# Tests used:
# BCL-2 = target: T1, BCL-2 (Homo sapiens, UniProt P10415); experiment: Binding activity for BCL-2 (HTRF, biotin-labeled BIM); conditions: His-tagged BCL-2, biotin-labeled BIM
# T1 construct: purchased R&D systems 827-BC-050
# Protocol: In vitro BCL-2-binding activity was tested by the following method.
# Reagents used in this experiment: His-tagged BCL-2 protein (R&D systems, Cat #827-BC-050); biotin-labeled BIM protein (R&D, Cat #3526/1); binding buffer (cisbio, Cat #62DLBDDF); assay buffer (cisbio, Cat #62DB1FDG); MAb anti-6His-Eu cryptate (cisbio, Cat #61HI2KLA); and affinity streptomycin linked XL665 (cisbio, Cat #611SAXLA).
# The in vitro binding assay described below can determine the binding activity of test compounds for BCL-2.
# The test compounds were dissolved in dimethyl sulfoxide and diluted to gradient concentrations as required for the experiment, and the compounds at various concentrations formulated in dimethyl sulfoxide were subjected to a 100-fold dilution with a binding buffer. BCL-2 was diluted to the corresponding concentration with a binding buffer solution, and added to a white 384-well plate at 4 μL/well. Then the diluted test compound was added into the white 384-well plate at 2 μL/well. The plate was incubated at 25° C. for 1 h after the mixture was uniformly mixed. Biotin-labeled BIM protein was diluted to the corresponding concentration with a binding buffer, and added to a white 384-well plate at 4 μL/well. The plate was incubated at 25° C. for 2 h after the mixture was uniformly mixed. The MAb anti-6His-Eu cryptate and the affinity streptomycin linked XL665 were each diluted to the corresponding concentration with an assay buffer, and added to a white 384-well plate at 5 μL/well. The plate was incubated at 25° C. for 2-4 h after the mixture was uniformly mixed. The signal values were read with the HTRF program in a microplate reader (BMG Labtech, model: PHERAstar FS).
# NCI-H146 cells = experiment: Inhibition of proliferation of NCI-H146 cells (CellTiter-Glo); assay type: cell-based; conditions: Homo sapiens, 72 h, 3 days, read-out: Inhibitory activity IC50 (nM) for the proliferation of NCI-H146 cells
# Protocol: In vitro inhibitory activity for the proliferation of RS4;11 cells and NCI-H146 cells was tested by the following method.
# Reagents used in this experiment: RPMI-1640 medium (HyCLone, Cat #SH30243018); fetal bovine serum (Gibco, Cat #10099-141); pancreatin (Gibco, Cat #25200-072); Cell Titer-Glo (Promega, Cat #G7571).
# Materials used: RS4;11 cells (Nanjing Kebai Biotechnology Co., Ltd, Cat #CBP60641); and NCI-H146 cells (ATCC, Cat #HTB-173).
# The in vitro cell proliferation assay described below can determine the inhibitory activity of the test compounds for the proliferation of RS4;11 cells and NCI-H146 cells.
# RS4;11 cells (or NCI-H146 cells) were cultured in an RPMI-1640 culture medium containing 10% FBS, and were passaged for 2-3 times a week in a passage ratio of 1:3 or 1:5. During passage, the cells were transferred to a centrifuge tube, and centrifuged at 1200 rpm for 3 min. The supernatant was discarded, and fresh culture medium was added to resuspend the cells. 90 μL of cell suspension was added to a 96-well cell culture plate, wherein RS4;11 cells and NCI-H146 cells were added at a density of 2.22×10^5 cells/mL. Only 100 μL of complete medium (RPMI-1640 medium containing 10% FBS) was added to the periphery of the 96-well plate. The plate was incubated in an incubator for 24 h (37° C., 5% CO2).
# The test sample was diluted to a proper concentration gradient with dimethyl sulfoxide as required for the experiment. 5 μL of the solution of the test compound prepared in a gradient concentration was added to 95 μL of fresh culture medium and mixed uniformly, and then 10 μL of the culture medium containing the above compound was added to a cell culture plate. The cell culture plate was incubated in an incubator for 3 days (37° C., 5% CO2). 50 μL of CellTiter-Glo reagent was added into each well of the 96-well cell culture plate. The plate was let stand for 5-10 min away from the light at room temperature. The chemiluminescence signals were read by a microplate reader (BMG Labtech, model: PHERAstar FS) and the data were processed by GraphPad software.
# [1] = system: human acute lymphoblastic leukemia RS4;11 mouse subcutaneous xenograft tumor; experiment: Therapeutic effect on RS4;11 mouse subcutaneous xenograft tumor; assay type: in vivo; conditions: NOD-Scid mice, RS4;11 xenograft; for Tolerability in tumor-bearing mice (weight loss) / Tumor rate TGI (%) inhibition: 10 mg/kg IV QW; for Tumor rate TGI (%) inhibition: D 20; for Mean tumor volume (mm^3) D 0: day 0, 10 mg/kg IV QW; for Mean tumor volume (mm^3) D 20: day 20, 10 mg/kg IV QW
# Protocol: This experiment was performed to evaluate and compare the therapeutic effect of the compounds of the present disclosure on human acute lymphoblastic leukemia RS4;11 mouse subcutaneous xenograft tumor.
# NOD-Scid mice, 5 weeks old, purchased from Beijing Huafukang Biotechnology Co., Ltd. Production license No.: SCXK (Beijing) 2019-0008; animal certification No.: 110322211100992176. Housing environment: SPF grade. 6 mice in a vehicle group, and 8 mice in a compound group.
# 5 mg of compound was added to 250 μL of DMSO and vortexed to provide a 20 mg/mL solution, which was diluted to the desired concentration with 30% hydroxypropyl-o-cyclodextrin (HP-3-CD, InnoStar Biotechnology Nantong Co., Ltd, Nantong).
# Human acute lymphoblastic leukemia RS4;11 was purchased from American Type Culture Collection. RS4;11 cells were cultured in a 10 cm petri dish with an RPMI 1640 culture medium (Gibco) containing 10% fetal bovine serum (Gibco) and penicillin and streptomycin in an incubator at 37° C. containing 5% CO2. The cells were passaged twice a week, and then collected, counted and inoculated when in the exponential growth phase.
# Each mouse was inoculated subcutaneously with 1×10^7 RS4;11 cells. When tumors grew to 100-200 mm^3, the mice were grouped according to tumor volume, intravenously (IV) injected with the drug once a week (QW) for a total of 4 times, at an injection volume of 0.1 mL/10 g body weight and a dose of 10 mg/kg.
# The experimental index was to investigate the influence of the drug on the tumor growth, and the specific index was T/C % or tumor growth inhibition (TGI %).
# Tumor diameters were measured twice a week with a vernier caliper and tumor volume (V) was calculated according to the following formula:
# V=½×a×b^2 where a and b represent length and width, respectively.
# T/C(%)=(T−T0)/(C−C0)×100,
# where T and C represent the tumor volume of animals at the end of the experiment in the treatment group and control group, respectively;
# T0 and C0 represent the tumor volume of animals at the beginning of the experiment in the treatment group and control group, respectively.
# Tumor growth inhibition % (TGI %)=100−T/C(%).
# When tumor started to regress, tumor growth inhibition % (TGI %)=100−(T−T0)/T0×100.
# If the tumor had reduced volume compared with the initial volume, i.e., T<T0 or C<C0, it was defined as partial regression (PR) of tumor; if the tumor completely disappeared, it was defined as complete regression (CR) of tumor.
# T1 sequence (P10415 whole entry): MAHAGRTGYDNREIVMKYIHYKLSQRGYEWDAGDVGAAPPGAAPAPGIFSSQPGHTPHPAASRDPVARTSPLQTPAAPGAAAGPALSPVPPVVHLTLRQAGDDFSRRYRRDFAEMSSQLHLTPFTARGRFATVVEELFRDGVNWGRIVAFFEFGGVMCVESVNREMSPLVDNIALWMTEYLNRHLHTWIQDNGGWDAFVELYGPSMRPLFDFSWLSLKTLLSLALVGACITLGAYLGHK
SMILES,Ki (BCL-2) [nM],IC50 (NCI-H146 cells) [nM],Tolerability in tumor-bearing mice (weight loss) [1],Tumor rate TGI (%) inhibition [1] [%],Mean tumor volume (mm^3) D 0 [1] [mm^3],Mean tumor volume (mm^3) D 20 [1] [mm^3]
"O=C(NS(=O)(=O)c1ccc(N[C@@H](CSc2ccccc2)C[C@@H]2CCCN2CCO)c(S(=O)(=O)C(F)(F)F)c1)c1ccc(N2CCC([C@@H](O)c3ccccc3-c3ccc(Cl)cc3)CC2)cc1 [Example 2-9, 4-(4-((R)-(4′-chloro-[1,1′-biphenyl]-2-yl)(hydroxy)methyl)piperidin-1-yl)-N-((4-(((R)-1-((S)-1-(2-hydroxyethyl)pyrrolidin-2-yl)-3-(phenylthio)propan-2-yl)amino)-3-((trifluoromethyl)sulfonyl)phenyl)sulfonyl)benzamide]",0.02,7,well tolerate,72,151.0,612.7
"CN(CCO)CC[C@H](CSc1ccccc1)Nc1ccc(S(=O)(=O)NC(=O)c2ccc(N3CCC([C@@H](O)c4ccccc4-c4ccc(C(F)(F)F)cc4)CC3)cc2)cc1S(=O)(=O)C(F)(F)F [Example 2-10, 4-(4-((R)-hydroxy(4′-(trifluoromethyl)-[1,1′-biphenyl]-2-yl)methyl)piperidin-1-yl)-N-((4-(((R)-4-((2-hydroxyethyl)(methyl)amino)-1-(phenylthio)butan-2-yl)amino)-3-((trifluoromethyl)sulfonyl)phenyl)sulfonyl)benzamide]",0.03,4,well tolerate,82,151.9,443.3
